Measured values published in patent publication US20100273780A1, “SUBSTITUTED 8-HETEROARYL XANTHINES” (PGXHEALTH, LLC, priority 2003, published 2010).

Target: T1, rat A2B receptors (rA2B) (Rattus norvegicus, UniProt P29276)
T1 construct: expressed in transfected cells; host or cells: HEK-293 cells, stably transfected (G418 selection); membranes
T1 sequence (P29276 1-332): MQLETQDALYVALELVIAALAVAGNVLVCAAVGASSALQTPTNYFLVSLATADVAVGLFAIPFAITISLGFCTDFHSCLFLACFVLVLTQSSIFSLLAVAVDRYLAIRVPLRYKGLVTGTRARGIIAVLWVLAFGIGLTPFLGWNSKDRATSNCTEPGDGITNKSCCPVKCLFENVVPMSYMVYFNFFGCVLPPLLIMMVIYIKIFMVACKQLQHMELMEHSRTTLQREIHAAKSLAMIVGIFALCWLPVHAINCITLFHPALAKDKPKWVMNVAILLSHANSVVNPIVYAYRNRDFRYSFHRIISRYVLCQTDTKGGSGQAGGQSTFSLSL
Experiment: Radioligand competition binding (125I-ABOPX) at rat A2B receptors in HEK-293 membranes
Conditions: displacement of specific [125I]ABOPX binding at rat A2B receptors expressed in HEK-293 cells; read-out: RatA2B Ki
Protocol: The plasmid was amplified in competent JM109 cells and plasmid DNA isolated using Wizard Megaprep columns (Promega Corporation, Madison, Wis.).
Transfected HEK cells were grown under 5% CO2/[…] humidified atmosphere at a temperature of 37° C. Colonies were selected by growth of cells in 0.6 mg/mL G418. Transfected cells were maintained in DMEM supplemented with Hams F12 nutrient mixture (1/1), 10% newborn calf serum, 2 mM glutamine and containing 50 IU/mL penicillin, […], and 0.2 mg/mL Geneticin (G418, Boehringer Mannheim). Cells were cultured in 10 cm diameter round plates and subcultured when grown confluent (approximately after 72 hours).
At A2B receptors: Confluent monolayers of HEK-A2B cells were washed with PBS followed by ice cold Buffer A (10 mM HEPES, 10 mM EDTA, pH 7.4) with protease inhibitors (10 μg/mL benzamidine, 100 μM phenylmethanesulfonyl fluoride, and 2 μg/mL of each aprotinin, pepstatin and leupeptin). The cells were homogenized in a Polytron (Brinkmann) for 20 s, centrifuged at 30,000×g, and the pellets washed twice with buffer HE (10 mM HEPES, 1 mM EDTA, pH 7.4 with protease inhibitors). The final pellet was resuspended in buffer HE, supplemented with 10% sucrose and frozen in aliquots at −80° C. For binding assays membranes were thawed and diluted 5-10 fold with HE to a final protein concentration of approximately 1 mg/mL. To determine protein concentrations, membranes, and bovine serum albumin standards were dissolved in 0.2% NaOH/0.01% SDS and protein determined using fluorescamine fluorescence. Stowell, C.
After incubation, 20 minutes at room temperature, 50 μL, of 10 mg/mL Na-metabisulfite in water was added to quench the reaction. The reaction mixture was applied to a C18 HPLC column, eluting with a mixture of methanol and 5 mM phosphate, pH 6.0. After 5 min at 35% methanol, the methanol concentration was ramped to 100% over 15 min.
Radioligand binding experiments were performed in triplicate with 20-25 μg membrane protein in a total volume of 0.1 mL HE buffer supplemented with 1 U/mL adenosine deaminase and 5 mM MgCl2. The incubation time was 3 h at 21° C. Nonspecific binding was measured in the presence of 100 μM NECA. […] Membranes were filtered on Whatman GF/C filters using a Brandel cell harvester (Gaithersburg, Md.) and washed 3 times over 15-20 seconds with ice cold buffer (10 mM Tris, 1 mM MgCl2, pH 7.4). Bmax and KD values were calculated by Marquardt's nonlinear least squares interpolation for single a site binding models. Marquardt, D. M., J. Soc. Indust. Appl. […] Ki values for different compounds were derived from IC50 values as described. Linden, J., J. Cycl. Nucl. […] Data from replicate experiments are tabulated as means±SEM.

| Compound | Ki [nM] |
| --- | --- |
| 1,3-Diethyl-8-[6-(N-(6-chloronicotinoyl)methylamino)-3-pyridyl]xanthine [Compound 130] | < 100 |
| 1,3-Diethyl-8-[6-[(N-phenylcarbamoyl)methylamino]-3-pyridyl)xanthine [Compound 61] | < 5000 |
| 1,3-Diethyl-8-[6-[N-(isoxazole-5-carbonyl)methylamino]-3-pyridyl)xanthine [Compound 108] | < 500 |
| 1,3-Diethyl-8-[6-[N-nicotinoylethylamino]-3-pyridyl)xanthine [Compound 62] | < 500 |
| 1,3-Dipropyl-8-[6-[N-(2-pyrazinecarbonyl)methylamino]-3-pyridyl)xanthine [Compound 109] | < 500 |
| 1,3-Dipropyl-8-[6-[N-(isoxazole-5-carbonyl)methylamino]-3-pyridyl)xanthine [Compound 110] | < 500 |
| 1,3-Dipropyl-8-[6-[N-isonicotinoylmethylamino]-3-pyridyl)xanthine [Compound 49] | < 100 |
| 1,3-diallyl-8-[6-(N-(6-chloronicotinoyl)methylamino)-3-pyridyl]xanthine [Compound 120] | < 100 |
| 1-Cyclopropyl-3-propyl-8-[6-[N-nicotinoylmethylamino]-3-pyridyl)xanthine [Compound 129] | < 100 |
| 1-Cyclopropylmethyl-3-ethyl-8-[6-[N-(6-chloronicotinoyl)methylamino]-3-pyridyl)xanthine [Compound 145] | < 100 |
| CCCn1c(=O)c2[nH]c(-c3ccc(Cl)nc3)nc2n(CCC)c1=O [Compound 1, 1,3-Dipropyl-8-(6-chloro-3-pyridyl)xanthine] | < 500 |
| CCCn1c(=O)c2[nH]c(-c3ccc(NCC)nc3)nc2n(CCC)c1=O [Compound 3, 1,3-Dipropyl-8-(6-ethylamino-3-pyridyl)xanthine] | < 500 |
| CCCn1c(=O)c2[nH]c(-c3ccc(NCCO)nc3)nc2n(CCC)c1=O [Compound 4, 1,3-Dipropyl-8-(6-(2-hydroxyethyl)amino-3-pyridyl)xanthine] | < 500 |
| CCCn1c(=O)c2[nH]c(-c3ccc(N4CCN(C(C)=O)CC4)nc3)nc2n(CCC)c1=O [Compound 5, 1,3-Dipropyl-8-[6-(4-acetylpiperazinyl)-3-pyridyl]xanthine] | < 500 |
| CCCn1c(=O)c2[nH]c(-c3ccc(N4CCCC4)nc3)nc2n(CCC)c1=O [Compound 8, 1,3-Dipropyl-8-(6-pyrrolidinylpyrid-3-yl)xanthine] | < 500 |
| CCCn1c(=O)c2[nH]c(-c3ccc(N4CCCN(C)CC4)nc3)nc2n(CCC)c1=O [Compound 9, 1,3-Dipropyl-8-{6-[4-methyl(perhydro-1,4-diazaepin-1-yl)]-3pyridyl}xanthine] | < 100 |
| CCCn1c(=O)c2[nH]c(-c3ccc(NC)nc3)nc2n(CCC)c1=O [Compound 10, 1,3-Dipropyl-8-(6-methylamino-3-pyridyl)xanthine] | < 500 |
| CCCn1c(=O)c2[nH]c(-c3ccc(NCC(C)O)nc3)nc2n(CCC)c1=O (stereo not drawn) [Compound 13, 1,3-Dipropyl-8-[6-(2-hydroxypropyl)amino-3-pyridyl]xanthine] | < 500 |
| CCCn1c(=O)c2[nH]c(-c3ccc(NCC(OC)OC)nc3)nc2n(CCC)c1=O [Compound 14, 1,3-Dipropyl-8-[6-(2,2-dimethoxyethyl)amino-3-pyridyl]xanthine] | < 500 |
| CCCn1c(=O)c2[nH]c(-c3ccc(NC(C)CO)nc3)nc2n(CCC)c1=O (stereo not drawn) [Compound 15, 1,3-Dipropyl-8-[6-(1-hydroxy-2-propyl)amino-3-pyridyl]xanthine] | < 100 |

| Compound | Ki [nM] |
| --- | --- |
| CCCn1c(=O)c2[nH]c(-c3ccc(N4CCOCC4)nc3)nc2n(CCC)c1=O [Compound 16, 1,3-Dipropyl-8-(6-morpholino-3-pyridyl)xanthine] | < 100 |
| CCCn1c(=O)c2[nH]c(-c3ccc(NCCOCCO)nc3)nc2n(CCC)c1=O [Compound 18, 1,3-Dipropyl-8-[[6-(2-hydroxyethoxy)ethylamino]-3-pyridy]xanthine] | < 500 |
| CCCn1c(=O)c2[nH]c(-c3ccc(N4CCNCC4)nc3)nc2n(CCC)c1=O [Compound 19, 1,3-Dipropyl-8-(6-piperazino-3-pyridyl)xanthine] | < 500 |
| CCCn1c(=O)c2[nH]c(-c3ccc(NCc4ccc(CN)cc4)nc3)nc2n(CCC)c1=O [Compound 21, 1,3-Dipropyl-8-[6-(4-aminomethylbenzylamino)-3-pyridyl]xanthine] | < 500 |
| CCCn1c(=O)c2[nH]c(-c3ccc(NC4CC4)nc3)nc2n(CCC)c1=O [Compound 23, 1,3-Dipropyl-8-(6-cyclopropylamino-3-pyridyl]xanthine] | < 500 |
| CCCn1c(=O)c2[nH]c(-c3ccc(NC4CCCC4)nc3)nc2n(CCC)c1=O [Compound 39, 1,3-Dipropyl-8-[6-(cyclopentylamino)-3-pyridyl]xanthine] | < 5000 |
| CCCn1c(=O)c2[nH]c(-c3ccc(Cl)nc3)nc2n(CCc2ccc(OC)cc2)c1=O [Compound 54, 1-propyl-3-(4-methoxyphenyl)ethyl-8-(6-chloro-3-pyridyl)xanthine] | < 5000 |
| CCCn1c(=O)c2[nH]c(-c3ccc(N4CCCNCC4)nc3)nc2n(CCC)c1=O [Compound 58, 1,3-Dipropyl-8-[6-(hexahydro-1,4-diazaepin-1-yl)-3-pyridyl]xanthine] | < 100 |
| CN(C(=O)c1cccnc1)c1ccc(-c2nc3c([nH]2)c(=O)n(CC2CC2)c(=O)n3CC2CC2)cn1 [Compound 69, 1,3-Dicylopropylmethyl-8-[6-[N-nicotinoylmethylamino]-3-pyridyl)xanthine] | < 500 |
| CCN(C(=O)c1cccnc1)c1ccc(-c2nc3c([nH]2)c(=O)n(CC2CC2)c(=O)n3CC2CC2)cn1 [Compound 70, 1,3-Dicylopropylmethyl-8-[6-[N-nicotinoylethylamino]-3-pyridyl)xanthine] | < 500 |
| CCn1c(=O)c2[nH]c(-c3ccc(NCc4ccccn4)nc3)nc2n(CC)c1=O [Compound 73, 1,3-Diethyl-8-[6-(2-pyridylmethylamino)-3-pyridyl]xanthine] | < 100 |
| CCn1c(=O)c2[nH]c(-c3ccc(NCc4cccnc4)nc3)nc2n(CC)c1=O [Compound 74, 1,3-Diethyl-8-[6-(3-pyridylmethylamino)-3-pyridyl]xanthine] | < 100 |
| CCn1c(=O)c2[nH]c(-c3ccc(NCc4cccc(OC)c4)nc3)nc2n(CC)c1=O [Compound 75, 1,3-Diethyl-8-[6-(3-methoxybenzylamino)-3-pyridyl]xanthine] | < 100 |
| CCCn1c(=O)c2[nH]c(-c3ccc(NCCc4ccccn4)nc3)nc2n(CCC)c1=O [Compound 78, 1,3-Dipropyl-8-[6-[2-(2-pyridyl)-ethylamino]-3-pyridyl]xanthine] | < 100 |
| CCn1c(=O)c2[nH]c(-c3ccc(NCCN4CCCC4)nc3)nc2n(CC)c1=O [Compound 81, 1,3-Diethyl-8-[6-[2-(1-pyrrolidinyl)-ethylamino]-3-pyridyl]xanthine] | < 100 |
| CCCn1c(=O)c2[nH]c(-c3ccc(NCCNC(C)=O)nc3)nc2n(CCC)c1=O [Compound 83, 1,3-Dipropyl-8-(6-(2-acetylaminoethyl)amino-3-pyridyl)xanthine] | < 500 |
| CCn1c(=O)c2[nH]c(-c3ccc(N(CCOC)C(=O)Nc4ccncc4)nc3)nc2n(CC)c1=O [Compound 95] | < 500 |
| CNc1ccc(-c2nc3c([nH]2)c(=O)n(C)c(=O)n3C)cn1 [Compound 97, 1,3-Dimethyl-8-(6-methylamino-3-pyridyl)xanthine] | < 500 |
| C#CCn1c(=O)c2[nH]c(-c3ccc(N(CCOC)C(=O)c4cccnc4)nc3)nc2n(C)c1=O [Compound 100, 1-Propargyl, 3-methyl-8-[6-[N-nicotinoyl, N-(2-methoxyethyl)amino]-3-pyridyl)xanthine] | < 5000 |
